This series can be described thus: Solubility of the active agent in water. The class given is physicochemical.

Our source for the solubility values is patent US20230081064A1, “FORMULATIONS FOR DELIVERY TO THE EAR” (Spiral Therapeutics Inc., priority 2021, published 2023).

Converted amounts (≈) assume the structure as drawn.

Consider `COc1ccc2[nH]cc(CCNC(=O)CC3C(=O)N(CCc4ccc(Cl)cc4Cl)CC(=O)N3CCc3cccs3)c2c1` (stereo not shown) [LPT99, 2-(4-(2,4-Dichlorophenethyl)-3,6-dioxo-1-(2-(thiophen-2-yl)ethyl)piperazin-2-yl)-N-(2-(5-methoxy-1H-indol-3-yl)ethyl)acetamide], for which the solubility is approximately 2.4 µM (≈ 1.51 µg/mL).
